We go through four molecules from patent publication EP0949238A1, “SUBSTITUTED PROPIONYL DERIVATIVES” (DAIICHI PHARMACEUTICAL CO., LTD., priority 1996, dated 1998).

One experiment concerns rat liver cells. Description: Cholesterol synthesis inhibitory activity in rat liver cells ([14C]-acetic acid uptake in cholesterol). The format is cell-based. The following applies: concentration inhibiting 50% of [14C] acetic acid radioactivity uptake into cholesterol; SD rat liver cells; read-out: Cholesterol synthesis inhibitory action in rat liver cells IC50 (10^-6M). How it is done:
Liver cells were isolated from rat livers by the in situ collagenase perfusion method. Described specifically, a 6-week-old male SD rat was intraperitoneally administered with a 50 mg/ml pentobarbital sodium solution and thereby anesthetized. After ventrotomy and cannulation from the portal vein, the rat was sacrificed under exsanguination by the excision of the lower large vein. From the cannula, a Hanks solution (pH 7.2) containing 2% albumin, 0.5 mM ethyleneglycolbis(2-aminoethylether) tetraacetate (EGTA) and 10 mM HEPES and being free from a divalent calcium ion and a divalent magnesium ion was subjected to perfusion (flow rate: 0.5 ml/sec) for 5 minutes. The Hanks solution was then changed to another Hanks solution (pH 7.5) having 0.05% collagenase, 4 mM calcium chloride and 10 mM HEPES added thereto and perfusion was continued for further 15 to 20 minutes. After confirmation of the sufficient digestion by collagenase, the liver tissue was placed on a Petri dish, 30 ml of a Dulbeco's modified Eagle's (DEM) medium was added thereto and cells were dispersed by drawing through suction. A cell filter was employed to remove the undigested tissue. The resulting cell suspension was subjected to centrifugal separation at 600 rpm for 1 minute. A 30 ml of DME medium was added to the sediment to disperse the cells, followed by centrifugal separation at 600 rpm for 1 minute. After these washing procedures by centrifugation were repeated three times in total, the liver cell suspension was suspended in a DME medium containing 10% of lipoprotein deficient serum (LPDS). The resulting suspension was seeded on a commercially-available 6-well plate coated with collagen at a cell density of 1 x 10^6 cells per well, followed by incubation overnight in a CO2 incubator (5% CO2 gas, 37°C).
The uptake of [^14C]-acetic acid radioactivity in cholesterol was measured using the liver cells prepared in the above-described manner and the cholesterol synthesis inhibitory activity of the test medicament was evaluated.
Described specifically, the cell culture medium of the liver cells was replaced by a 25 mM HEPES-10% LPDS-DME medium (pH 7.4) containing the test medicament, followed by incubation for one hour in a CO2 incubator. Then, [^14C] sodium acetate was added to give the final concentration of 1 µCi/ml. After incubation for further one hour in the CO2 incubator, the cell culture medium was removed. The cells were washed three times with a phosphate buffered saline (pH 7.2) and then dissolved in 1 ml of a 0.1N aqueous sodium hydroxide solution. […] To the vial, 10 ml of Aquasol 2 was added and ^14C and ^3H radioactivities were counted by a liquid scintillation counter.
The cholesterol synthesis inhibitory activity of the test medicament was calculated in the below-described procedures. […]

The target of the next experiment is T1, squalene synthetase (Homo sapiens, UniProt P37268).
T1 construct: 0.01 to 0.1 µg of the HepG2 cell microsome preparation; endogenous in cells; host or cells: HepG2 cells (microsome fraction)
T1 sequence (P37268 1-417): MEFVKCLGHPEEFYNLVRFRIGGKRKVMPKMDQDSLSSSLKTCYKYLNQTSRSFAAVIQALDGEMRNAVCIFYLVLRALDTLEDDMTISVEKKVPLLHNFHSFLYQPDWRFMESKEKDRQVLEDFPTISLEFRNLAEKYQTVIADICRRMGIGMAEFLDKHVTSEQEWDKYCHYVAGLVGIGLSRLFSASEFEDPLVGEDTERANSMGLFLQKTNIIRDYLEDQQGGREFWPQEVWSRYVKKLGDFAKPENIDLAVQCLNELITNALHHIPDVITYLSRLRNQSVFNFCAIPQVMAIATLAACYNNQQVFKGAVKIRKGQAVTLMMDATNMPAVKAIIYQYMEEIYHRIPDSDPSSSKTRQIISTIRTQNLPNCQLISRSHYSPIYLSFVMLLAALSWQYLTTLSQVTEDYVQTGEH
The experiment in a line: Squalene synthetase inhibitory activity (HepG2 cell microsome fraction, [3H]farnesyl pyrophosphate incorporation into squalene). The format is biochemical. The following applies: HepG2 cell microsome preparation, 5 µM [3H]farnesyl pyrophosphate, 37°C for 20 minutes. How it is done: As an enzyme source to measure squalane synthetase activity, we prepared a microsome fraction from a human hepatoma-derived cell line, HepG2 cells, according to the method described by Schechter et al. (Journal of Biological Chemistry, Vol. 267, pp.8628-8635, 1992).
Described specifically, HepG2 cells were first homogenized in the presence of a 10 mM N-2-hydroxyethylpiperazin-N'-2-ethanesulfonate (HEPES) buffer containing 0.3M sucrose, 1 mM dithiothreitol (DTT), 1 mM sodium ethylenediaminetetraacetate (EDT) and various protease inhibitors and adjusted to pH 7.4. The resulting mixture was subjected to centrifugal separation at 2,000 x g for 5 minutes and then 10,000 x g for 15 minutes. The protease inhibitors employed were phenylmethanesulfonyl fluoride (PMSF), leupeptin and aprotinin, which were added to give the final concentration of 1 mM, 10 µM and 5 µg/ml, respectively. The supernatant after centrifugation was centrifuged further at 105,000 xg for 60 minutes. The precipitate thus obtained was suspended in a 20 mM phosphate buffer (pH 7.4) containing 1 mM DTT, 1 mM EDTA and the above-described protease inhibitors and the resulting suspension was washed twice by centrifugation at 105,000 x g for 30 minutes. The precipitate was then suspended in a 20 mM phosphate buffer (pH 7.4) containing 1 mM DTT and 1 mM EDTA and the resulting suspension was similarly centrifuged. […]

As for `C[C@H](NC(=O)C[C@@H](CC(=O)O)C(=O)O)[C@@H](Cc1ccc(Cl)c(Cl)c1)OC(=O)c1ccc2ccccc2c1` [Compound A, (2S)-2-[N-{(1S,2R)-3-(3,4-dichlorophenyl)-1-methyl-2-(2-naphthoyloxy)propyl}carbamoylmethyl] succinic acid, reference compound], the IC50 in the experiment on rat liver cells came out at 320 nM.
With `CC(C)(C)CN1C(=O)[C@@H](CC(=O)NCC(=O)O)O[C@H](c2ccccc2Cl)c2cc(Cl)ccc21` [Compound B, N-[(3R,5S)-7-chloro-5-(2-chlorophenyl)-1-neopentyl-2-oxo-1,2,3,5-tetrahydro-4,1-benzoxazepin-3-acetyl] aminoacetic acid, reference compound], in the experiment with rat liver cells, the IC50 came to 390 nM.
Take `O=C(O)CO[C@@H](C(=O)O)[C@@H](OCCCCCc1ccc2ccccc2c1)C(=O)NCCCCCc1ccc2ccccc2c1` [Example 1, (2R,3R)-2-Carboxymethoxy-3-[N-[5-(2-naphthyl)pentyl]carbamoyl]-3-[5-(2-naphthyl)pentyloxy]propionic acid]: the IC50 is 0.3 nM against squalene synthetase and 150 nM with rat liver cells.
For the molecule `CN(CCCCCc1ccc2ccccc2c1)C(=O)[C@H](OCCCCNc1ccc2c(c1)CCC2)[C@@H](OCC(=O)O)C(=O)O` [Example 48, (2R,3R)-2-Carboxymethoxy-3-[4-(5-indanylamino)butoxy]-3-[N-methyl-N-[5-(2-naphthyl)pentyl]carbamoyl]propionic acid], the IC50 in the experiment with rat liver cells was determined as 19 nM.
